Like-named read-outs stand apart in the source and are kept apart here.

The results in this text go back to US8709406B2, “Prevention and treatment of oxidative stress disorders by gluthathione and phase II detoxification enzymes” (Brassica Foundation for ChemoProtection Research, priority 2001, dated 2014).

Type in all cases: cell-based, human
One test relates to ARPE-19 cells. The test is described as follows: Oxidant cytotoxicity (MTT viability, median effect analysis) and protection by 24 h sulforaphane pretreatment. Particulars: for EC50: Homo sapiens. The method, then:
(§1) All experiments were performed in 96-well microliter plates. ARPE-19 and HaCaT cells were seeded at 10,000 cells per well and grown for 24 h before addition of sulforaphane, whereas L1210 cells (5,000 cells/well) were not incubated before sulforaphane treatment. Solutions of sulforaphane (5 mM) in dimethyl sulfoxide were diluted with the cognate culture medium to provide final inducer concentrations of 0.16-5.0 μM. The final DMSO concentrations were 0.1% by volume.
Tert-Butyl hydroperoxide (1 M) and 4-hydroxynonenal (25 mM) were dissolved in DMSO and diluted 1000-fold with serum-free medium before addition of serial dilutions to the microtiter plate wells. The final concentrations of DMSO were therefore less than 0.1% (by vol.). Menadione sodium bisulfite (0.5 M) and SIN-1 (0.5 M) were dissolved and added in PBS. ARPE-19 cells were exposed to menadione for 2 h and to tert-butyl hydroperoxide for 16 h, washed with PBS, and cell viability was determined by the MIT test. ARPE-19 cells were exposed to peroxynitrite for 2 h and 4-hydroxynonenal for 4 h, and the cells were then incubated in serum-free media for 22 and 20 h, respectively, washed with PBS, and cell viability was determined. The additional incubation periods were required for peroxynitrite and 4-hydroxynonenal to evoke maximal cytotoxicity.
(§2) Cell viability was determined by spectroscopic measurement of the reduction of MTT (Carmichael, J., DeGraff, W. G., Gazdar, A. F., Minna, J. D. & Mitchell, J. B. (1987) Cancer Res. 47, 936-942). The culture media were discarded after the designated incubation periods, the cells were washed three times with PBS by use of a microtiter plate washer (Ultrawash Plus, Dynex Technologies, Chantilly, Va.). Each well then received 150 μl of an MTT solution (0.5 mg/ml) in serum-free medium. The plates were incubated for 2 h at 37° C., the MTT solution was discarded, 100 μl of DMSO were added to each well, and the plates were shaken at 200 rpm on an orbital shaker for 5 min. The absorbances of the wells were determined at 555 nm with a microtiter plate reader (Spectra Max Plus, Molecular Devices, Sunnyvale, Calif.). The absorbance of reduced MIT was then compared at each inducer and oxidant concentration to that of untreated control cells that received only the vehicle in which sulforaphane (DMSO) and menadione (DMSO or PBS) were dissolved. In each experiment three identical 96-well plates were used and the means of the absorbance values, the standard deviations of these means, and their coefficients of variation were calculated.
(§3) Dose-effect analyses were performed according to the Median Effect Equation, by use of a computer program (Chou, T. C. & Hayball, M. (1996) CalcuSyn for Windows 3.1 and 95: multiple dose effect analyzer and manual for IBM-PC, Biosoft, Cambridge, U.K). The equation: fa/fu=[D/Dm]^m, where fa is the fraction of cells affected by the oxidant, fu is the fraction unaffected (i.e., 1-fa), D is the dose of oxidant required to produce the effect fa, Dm is the concentration of oxidant required to produce a 50% effect, i.e., when fa=fu, and the slope m is a measure of the sigmoidicity of the dose-response curve, and is therefore a measure of cooperativity. The results are analyzed by plotting log(fa/fu) with respect to log D of the oxidant. The computer program provides the slope (m) of the curves, and the goodness of fit (r^2) to linearity.

For test [1], the system named is Retina Pigment Epithelium Cell. The test is described as follows: Photooxidative damage by all-trans-retinal and 365 nm light, protection by sulforaphane (cell survival). Particulars: sulforaphane 0.00 μM. As for the experimental part:
There is accumulating evidence that chronic exposure to sunlight plays a role in some degenerative diseases, for instance, age-related macular degeneration (AMD). We have, therefore, carried out an experiment of protection of human RPE cells against photooxidative damage mediated by all-trans-retinal, which exists in human retina and is a critical component of the visual cycle.
as §2
To examine the protective effect of sulforaphane against photooxidative damage mediated by all-trans-retinal and light exposure, the cells were treated with 0-100 μM of all-trans-retinal for 2 hours and light exposure at 365 nm for 20 min after incubation with 0-5 μM of sulforaphane for 24 hours.

The subject of another test is HaCaT cells. The test can be described thus: tert-Butyl hydroperoxide cytotoxicity (MTT, median effect analysis) and protection by sulforaphane. The method, then:
Mouse L1210 leukemia cells, a gift from Dr. Joseph G. Cory, East Carolina State University, Greenville, N.C., were grown in RPMI 1640 medium supplemented with 10% horse serum. All cultures were incubated in a humidified atmosphere of 5% CO2 at 37° C. Media and sera were obtained from Life Technologies (Rockville, Md.).
as §1, §2, §3

[2] abbreviates: ARPE-19, mean over sulforaphane 0-2.5 μM.

For the compound `CCCCCC(O)C=CC=O` (centres unmarked) [4-hydroxynonenal, 4-Hydroxynon-2-enal, reference compound], the “m (slope of median effect plot) for 4-hydroxynonenal” value in the test with ARPE-19 cells (ARPE-19, 4-hydroxynonenal 4 h, sulforaphane 0.00 μM) was 2.85. The “mean slope m for 4-hydroxynonenal” value with ARPE-19 cells (setting [2]) turned out to be 2.66. In addition, the EC50 in the test with ARPE-19 cells (ARPE-19, 4 h, ARPE-19, 4-hydroxynonenal 4 h, sulforaphane 0.00 μM, read-out: Dm (median effect concentration) of 4-hydroxynonenal) stood at 8.7 µM.
Consider `CC1=C(/C=C/C(C)=C/C=C/C(C)=C/C=O)C(C)(C)CCC1` [All-trans-Retinal, all-trans-retinal, reference compound], for which the Survival in test [1] (365 nm light, all-trans-retinal 12.5 μM) is recorded as 83.6%; in test [1] (365 nm light, all-trans-retinal 25 μM) it was 41.9%; in test [1] (365 nm light, all-trans-retinal 50 μM), 9.4%; in test [1] (365 nm light, all-trans-retinal 100 μM), 3.1%; in test [1] (in dark, all-trans-retinal 12.5 μM), 96.3%; in test [1] (in dark, all-trans-retinal 25 μM) it was 97.6%. For the same compound, the Survival in test [1] (in dark, all-trans-retinal 50 μM) is 96.8%; in test [1] (in dark, all-trans-retinal 100 μM) it was 75.0%.
For the compound `O=NOO` [Peroxynitrite, reference compound], the “mean slope m for peroxynitrite” value in the test on ARPE-19 cells (setting [2]) is reported as 6.29. The “m (slope of median effect plot) for peroxynitrite” value with ARPE-19 cells (ARPE-19, peroxynitrite (from SIN-1) 2 h, sulforaphane 0.00 μM) stood at 6.07. Moreover, the EC50 in the test on ARPE-19 cells (ARPE-19, 2 h, ARPE-19, peroxynitrite (from SIN-1) 2 h, sulforaphane 0.00 μM, read-out: Dm (median effect concentration) of peroxynitrite) was 1440 µM.
Consider `CC(C)(C)OO` [tert-Butyl hydroperoxide, Tert-Butyl hydroperoxide, reference compound], for which the EC50 with HaCaT cells (Homo sapiens, 8 h, read-out: Dm (median effect concentration) of tert-butyl hydroperoxide) came to 63.5 µM; in the test on ARPE-19 cells (ARPE-19, 16 h, read-out: Dm (median effect concentration) of tert-butyl hydroperoxide), 95.8 µM. Further, the “slopes of the median effect plots for tert-butyl hydroperoxide” value in the test on HaCaT cells (over the sulforaphane concentrations) is 0.8-1.2. The “m (slope of median effect plot) for tert-butyl hydroperoxide” value in the test on HaCaT cells (tert-butyl hydroperoxide 8 h, sulforaphane 0.00 μM) is 0.899; in the test with ARPE-19 cells (ARPE-19, tert-butyl hydroperoxide 16 h, sulforaphane 0.00 μM), 2.52. Moreover, the “mean slope m for tert-butyl hydroperoxide” value with ARPE-19 cells (setting [2]) was found to be 1.93.
